Laboratory results taken from ChEMBL document CHEMBL2057136, “Discovery of MEK/PI3K dual inhibitor via structure-based virtual screening” (Bioorg Med Chem Lett, 2012).

Legend:
[1] = molecular target: T1, Dual specificity mitogen-activated protein kinase kinase 1 (Homo sapiens, UniProt Q02750); test: Inhibition of MEK1 at 10 uM using [gamma32P]ATP by radiometric kinase assay
[2] = molecular target: T1, Dual specificity mitogen-activated protein kinase kinase 1; test: Inhibition of MEK1 using [gamma32P]ATP by radiometric kinase assay
[3] = molecular target: Phosphatidylinositol 4,5-bisphosphate 3-kinase catalytic subunit alpha isoform (Homo sapiens, UniProt P42336); test: Inhibition of PI3Kalpha using [gamma32P]ATP by radiometric kinase assay
[4] = molecular target: Dual specificity mitogen-activated protein kinase kinase 2 (Homo sapiens, UniProt P36507); test: Inhibition of MEK2 using [gamma32P]ATP by radiometric kinase assay
Chain of Dual specificity mitogen-activated protein kinase kinase 2 (P36507 whole entry): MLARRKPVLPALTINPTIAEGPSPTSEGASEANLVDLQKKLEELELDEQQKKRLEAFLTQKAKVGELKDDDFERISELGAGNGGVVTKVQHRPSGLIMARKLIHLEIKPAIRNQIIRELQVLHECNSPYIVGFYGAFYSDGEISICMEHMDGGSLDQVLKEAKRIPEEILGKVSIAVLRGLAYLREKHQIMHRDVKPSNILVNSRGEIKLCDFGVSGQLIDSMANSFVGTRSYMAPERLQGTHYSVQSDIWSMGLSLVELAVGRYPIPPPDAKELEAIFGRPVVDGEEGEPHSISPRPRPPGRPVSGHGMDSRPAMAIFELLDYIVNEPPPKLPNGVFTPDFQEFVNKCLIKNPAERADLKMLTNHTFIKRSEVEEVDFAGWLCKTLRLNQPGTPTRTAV

Chain of Phosphatidylinositol 4,5-bisphosphate 3-kinase catalytic subunit alpha isoform (P42336 whole entry, canonical isoform): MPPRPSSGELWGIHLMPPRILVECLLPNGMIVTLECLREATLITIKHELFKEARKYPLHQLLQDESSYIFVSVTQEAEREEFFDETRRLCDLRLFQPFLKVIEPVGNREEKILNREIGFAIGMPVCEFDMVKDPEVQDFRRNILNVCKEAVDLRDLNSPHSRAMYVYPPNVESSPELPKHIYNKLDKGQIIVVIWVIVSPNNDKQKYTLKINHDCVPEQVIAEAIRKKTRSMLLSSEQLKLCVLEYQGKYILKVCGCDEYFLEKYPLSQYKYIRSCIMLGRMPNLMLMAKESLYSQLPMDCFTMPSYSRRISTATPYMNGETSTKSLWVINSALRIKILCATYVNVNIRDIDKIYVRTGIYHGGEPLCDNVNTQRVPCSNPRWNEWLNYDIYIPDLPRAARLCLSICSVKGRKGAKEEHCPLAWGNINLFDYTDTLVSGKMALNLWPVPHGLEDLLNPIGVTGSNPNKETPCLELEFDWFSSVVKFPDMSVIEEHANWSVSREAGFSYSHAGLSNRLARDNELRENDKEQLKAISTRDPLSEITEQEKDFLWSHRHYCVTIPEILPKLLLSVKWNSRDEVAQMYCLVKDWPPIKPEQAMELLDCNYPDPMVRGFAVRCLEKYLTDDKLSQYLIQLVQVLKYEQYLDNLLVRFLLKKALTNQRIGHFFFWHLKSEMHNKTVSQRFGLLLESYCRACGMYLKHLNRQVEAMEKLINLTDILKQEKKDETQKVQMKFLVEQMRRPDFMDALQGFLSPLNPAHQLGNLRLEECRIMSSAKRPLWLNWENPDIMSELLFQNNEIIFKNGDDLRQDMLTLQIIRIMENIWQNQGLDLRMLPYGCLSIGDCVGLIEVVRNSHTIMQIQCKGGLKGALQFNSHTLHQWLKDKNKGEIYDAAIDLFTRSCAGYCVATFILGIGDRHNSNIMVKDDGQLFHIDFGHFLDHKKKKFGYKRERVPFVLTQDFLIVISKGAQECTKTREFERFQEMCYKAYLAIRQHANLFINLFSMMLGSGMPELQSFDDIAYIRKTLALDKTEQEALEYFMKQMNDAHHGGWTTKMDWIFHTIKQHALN
T1 sequence (Q02750 whole entry): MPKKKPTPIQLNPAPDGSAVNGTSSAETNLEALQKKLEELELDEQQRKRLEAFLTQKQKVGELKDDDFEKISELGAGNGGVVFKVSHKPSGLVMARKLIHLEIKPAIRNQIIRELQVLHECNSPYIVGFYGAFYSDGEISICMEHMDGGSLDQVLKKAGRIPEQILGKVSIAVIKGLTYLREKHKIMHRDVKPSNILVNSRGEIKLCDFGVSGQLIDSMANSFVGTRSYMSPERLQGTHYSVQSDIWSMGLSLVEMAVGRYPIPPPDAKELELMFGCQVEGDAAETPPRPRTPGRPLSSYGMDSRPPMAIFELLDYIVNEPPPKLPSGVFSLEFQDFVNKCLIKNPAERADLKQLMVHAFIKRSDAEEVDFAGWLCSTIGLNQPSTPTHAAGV

Compound | inhibition [1] | IC50 [2] | IC50 [3] | IC50 [4]
O=C(O)c1cccc(N2C(=O)/C(=C\c3cnc4ccccc4n3)SC2=S)c1 | > 30% | 23.1 µM | > 30 µM | 
N=C1/C(=C\c2ccc(O)c(O)c2)C(=O)N=C2SC(c3ccc(O)cc3)=NN12 | > 30% | 2.2 µM | 0.3 µM | 1.3 µM
OCCNc1ncnc2oc(-c3ccccc3)c(-c3ccccc3)c12 | > 30% | 12.3 µM | > 30 µM | 
N=C1/C(=C\c2coc3ccccc3c2=O)C(=O)N=C2SC(c3ccc(O)cc3)=NN12 | > 30% | 8.5 µM | 10.2 µM | 
